Source: patent publication US20020132793A1, “Use of methylphenidate compounds to enhance memory” (priority 2000, published 2002)

Tests used:
IA memory in the rat = test: Inhibitory Avoidance (IA) task in normal rats; format: in vivo; settings: for retention on the IA task: FIG. 1
Protocol: An exemplary passive avoidance test utilizes an apparatus that consists of a lit chamber that can be separated from a dark chamber by a sliding door. At training, the animal is placed in the lit chamber for some period of time, and the door is opened. The animal moves to the dark chamber after a short delay—the latency—that is recorded. Upon entry into the dark chamber, the door is shut closed and a foot shock is delivered. Retention of the experience is determined after various time intervals, e.g., 24 or 48 hours, by repeating the test and recording the latency. The protocol is one of many variants of the passive avoidance procedures (for review, see Rush (1988) Behav Neural Biol 50:255).
The Inhibitory Avoidance (IA) task is a well-studied behavioral paradigm which can provide the researcher with a consistent and long-lasting measure of memory. The paradigm consists of one training trial and one retention trial. Test articles may be administered to the rats either before or after training. Improved memory, as a result of test compound administration, is evident as increased latency on the retention trial. The objective of the following experiments was to investigate the effects of methylphenidate on IA memory in the rat.
In this experiment, rats were injected with three different doses of methylphenidate thirty minutes prior to training on the IA task.
Rats were injected with 5 mg/kg of methylphenidate and trained on the IA task.
In this experiment, the time of drug administration was varied in order to determine the optimal pre-training drug administration time.
This experiment was conducted in order to determine whether the enhanced retention observed in Experiment 2 was long-lasting. Rats received a second retention test one week after the first retention test. No additional training or drug was administered to the animals in the interim period.
In the next experiment, we investigated whether the performance of amnesic rats could be improved by administration of methylphenidate. In this experiment, control rats and rats with lesions of the fornix received injections of either saline or methylphenidate (5 mg/kg), and one hour later, were tested on the IA task.
Different doses of l-threo methylphenidate were administered to rats one hour prior to training on the Inhibitory Avoidance task. Retention for the task was tested 24 hours later. […] This experiment was subsequently replicated using a target dose of 5 mg/kg.
The effects of d-threo methylphenidate on memory consolidation as tested by the Inhibitory Avoidance task were also evaluated. Different doses of d-threo were administered to rats one hour prior to training on the Inhibitory Avoidance task.

locomotor activity = test: Activity monitoring task (locomotor activity levels)
Protocol: The effects of d-threo methylphenidate on locomotor activity was investigated by injecting rats with saline or 2.5 mg/kg of d-threo methylphenidate, and testing them one hour later on the activity monitoring task.
In order to investigate the effects of l-threo methylphenidate on activity levels, rats were injected with 5 mg/kg of l-threo methylphenidate, and underwent activity monitoring one hour later.

memory retention = test: Providence Recognition Memory Test (Pictoral) in healthy human volunteers; format: in vivo; settings: PRMT (ascending) and RAVLT (descending) experiments together
Excerpt: (§1) The primary objective of the study is to identify the MTD and dose-limiting side-effects of l-threo methylphenidate hydrochloride. The secondary objectives included:
(§2) This was a randomised, double-blind, placebo-controlled, study including eight healthy male/female subjects. There were five treatment periods, each comprising two treatment days, with a 5-day washout period between dose levels. Subjects received four ascending doses of drug (a split dose on the first day of the treatment period and half the dose on the second day of the treatment period) and placebo. The placebo dose was randomly assigned to one of the five treatment periods. Each dose was taken orally.
(§3) The first dose level was administered on Day 1 and Day 2. After a 5-day washout period, subjects received the next dose level for 2 days. The period of washout and dose escalation was repeated until all five dose levels (four active dose levels and one placebo) were administered. Safety and tolerability was assessed after each treatment period to determine if subjects may advance to the next dose level.
Patients were assessed using the Providence Recognition Memory Test (Pictoral). Higher PRMT score indicates increased memory retention. […] This study was performed on Decending Plasma Curve of l-threo-methylphenidate. Higher RAVLT score indicates increased memory retention.

attention and learning = test: Brief Visuospatial Memory Test in healthy human volunteers; format: in vivo
Excerpt: as §1, §2, §3
Higher BVMT score indicates increased attention and learning.

[1] = cited from earlier work
[2] = test system: rats with lesions of the fornix; test: Inhibitory Avoidance (IA) task in rats with lesions of the fornix; format: in vivo, rat; settings: 5 mg/kg, one hour before
[3] = 5 mg/kg, one hour later, vs saline
[4] = 2.5 mg/kg, tested one hour later, vs saline

COC(=O)[C@@H](c1ccccc1)[C@@H]1CCCCN1 [l-threo methylphenidate, L-threo-methylphenidate]
performance on the Inhibitory Avoidance task, dose finding (IA memory in the rat; 5 mg/kg one hour prior to training, retention tested 24 hours later, FIG. 4): appeared to be effective in enhancing performance | performance of the Inhibitory Avoidance task, replication (IA memory in the rat; 5 mg/kg one hour prior to training, t(59)=2.686, p<0.0094, FIG. 5): significantly enhanced performance | activity levels compared to saline injected controls (locomotor activity; 5 mg/kg, activity monitoring one hour later, FIG. 8): did not result in greatly increased activity levels | locomotor hyperactivity, overall (locomotor activity; 5 mg/kg, one hour later): does not appear to result in serious locomotor hyperactivity | number of movements (locomotor activity; [3]): no significant difference | number of stereotyped activities (locomotor activity; [3]): no significant difference | total distance moved (locomotor activity; [3]): no significant difference | number of rears (locomotor activity; 5 mg/kg, one hour later, vs saline, F(1, 70)=74.26, p<0.0001): small, but statistically significant main effects | movement time (locomotor activity; 5 mg/kg, one hour later, vs saline, F(1, 70)=728, p<0.0033): small, but statistically significant main effects | time spent resting (locomotor activity; 5 mg/kg, one hour later, vs saline, F(1, 70)=730.6, p<0.0032): small, but statistically significant main effects | memory enhancement, ascending vs descending portion of the plasma curve (memory retention): more effective during the ascending portion of the plasma curve | enhancement of attention and learning by portion of the plasma curve (attention and learning; BVMT): more effective during the ascending portion of the plasma curve | attention and learning, BVMT score (attention and learning; ascending blood concentration, oral, healthy volunteers, FIG. 14): can enhance attention and learning in patients | half-life relative to dl-threo methylphenidate ([1]; strong evidence): even shorter half-life

COC(=O)[C@H](c1ccccc1)[C@H]1CCCCN1 [d-threo methylphenidate, D-threo-methylphenidate]
memory consolidation in the Inhibitory Avoidance task, dose finding (IA memory in the rat; 2.5 mg/kg one hour prior to training, FIG. 6): appears to be effective in improving memory | memory in the Inhibitory Avoidance task, replication (IA memory in the rat; 2.5 mg/kg, t(85)=2.403, p<0.0184, FIG. 7): significant memory enhancing effects | number of movements (locomotor activity; [4]): No significant main effects | number of stereotyped activities (locomotor activity; [4]): No significant main effects | total distance moved (locomotor activity; [4]): No significant main effects | number of rears (locomotor activity; 2.5 mg/kg, tested one hour later, vs saline, F(1, 70)=19.60, p<0.0234): Significant main effects | movement time (locomotor activity; 2.5 mg/kg, tested one hour later, vs saline, F(1, 70)=1304, p<0.0001): Significant main effects | rest time (locomotor activity; 2.5 mg/kg, tested one hour later, vs saline, F(1, 70)=1322, p<0.0001): Significant main effects | hyperactivity (locomotor activity) (locomotor activity; 2.5 mg/kg, tested one hour later, vs saline, FIG. 9): did not produce a large amount of hyperactivity

COC(=O)C(c1ccccc1)C1CCCCN1 (racemic) [methylphenidate, methyl α-phenyl-2-piperidineacetate]
retention on the IA task (IA memory in the rat; 5 mg/kg injected thirty minutes prior to training): improved retention | performance of normal rats on the IA task (IA memory in the rat; 5 mg/kg, one hour before, FIG. 3): dramatically enhanced | performance of normal rats vs all other experimental groups (Student-Newman-Keuls post hoc) (IA memory in the rat; 5 mg/kg, one hour before, p<0.05): significantly enhanced relative to all other experimental groups | optimal pre-training drug administration time (IA memory in the rat; 5 mg/kg, time of drug administration varied): most effective when administered to the rats one hour prior to training | retention of the IA task, second experiment (IA memory in the rat; 5 mg/kg, unpaired t-test p<0.03, FIG. 2): significantly improved retention | retention on the IA task (IA memory in the rat; 10 mg/kg injected thirty minutes prior to training): no effect | retention on the IA task (IA memory in the rat; 15 mg/kg injected thirty minutes prior to training): no effect | performance at second retention test (long-term retention) (IA memory in the rat; one week after the first retention test, no additional training or drug, t(54)=2.358, p<0.0220): still significantly enhanced | performance of the fornix lesion rats on the IA task ([2]; FIG. 3): appeared to improve | performance of fornix animals vs normal, saline injected animals ([2]; post hoc test): not significantly different from normal, saline injected animals | half-life ([1]; in adults): 2 to 3 h | time to excretion after dosing ([1]; in adults): 48 to 96 h
